From the kinase profiling compilation of Christmann-Franck et al. (2016)
Each block holds one compound with its values, some of them ahead of it.

How the values were obtained:
Test in all cases: radiometric filter-binding kinase assay
MARK1 (human) = MARK1 (human) (UniProt Q9P0L2)
CHEK2 (human) = CHEK2 (human) (UniProt O96017)
CSK (human) = CSK (human) (UniProt P41240)
DYRK2 (human) = DYRK2 (human) (UniProt Q92630)
ERBB4 (human) = ERBB4 (human) (UniProt Q15303)
CaMK1 (human) = CaMK1 (human) (UniProt Q14012)
EEF2K (human) = EEF2K (human) (UniProt O00418)
CSNK2A1 (human) = CSNK2A1 (human) (UniProt P68400)
GCK (human) = GCK (human) (UniProt Q12851)
HIPK1 (human) = HIPK1 (human) (UniProt Q86Z02)
EPHB1 (human) = EPHB1 (human) (UniProt P54762)
MELK (human) = MELK (human) (UniProt Q14680)
IGF1R (human) = IGF1R (human) (UniProt P08069)
MAPK13 (human) = MAPK13 (human) (UniProt O15264)
MAPK1 (human) = MAPK1 (human) (UniProt P28482)
[1] = tested on: AKT2 (human), P31751 [S474D]
EPHB4 (human) = EPHB4 (human) (UniProt P54760)
PIM2 (human) = PIM2 (human) (UniProt Q9P1W9)
NEK6 (human) = NEK6 (human) (UniProt Q9HC98)
EPHB3 (human) = EPHB3 (human) (UniProt P54753)
PIM3 (human) = PIM3 (human) (UniProt Q86V86)
MAPK12 (human) = MAPK12 (human) (UniProt P53778)
PIM1 (human) = PIM1 (human) (UniProt P11309)
INSRR (human) = INSRR (human) (UniProt P14616)
MAP3K7 TAB1 (human) = MAP3K7 TAB1 (human) (UniProt Q15750+O43318)
MYLK (human) = MYLK (human) (UniProt Q15746)
MKNK1 (human) = MKNK1 (human) (UniProt Q9BUB5)
NUAK1 (human) = NUAK1 (human) (UniProt O60285)
MAPK15 (human) = MAPK15 (human) (UniProt Q8TD08)
MARK3 (human) = MARK3 (human) (UniProt P27448)
EPHA4 (human) = EPHA4 (human) (UniProt P54764)
MAPKAPK2 (human) = MAPKAPK2 (human) (UniProt P49137)
MAPK14 (human) = MAPK14 (human) (UniProt Q16539)
JAK2 JH1 JH2 (human) = JAK2 JH1 JH2 (human) (UniProt O60674)
PRKCZ (human) = PRKCZ (human) (UniProt Q05513)

Sequence of MAPK13 (human) (O15264 whole entry, looked up): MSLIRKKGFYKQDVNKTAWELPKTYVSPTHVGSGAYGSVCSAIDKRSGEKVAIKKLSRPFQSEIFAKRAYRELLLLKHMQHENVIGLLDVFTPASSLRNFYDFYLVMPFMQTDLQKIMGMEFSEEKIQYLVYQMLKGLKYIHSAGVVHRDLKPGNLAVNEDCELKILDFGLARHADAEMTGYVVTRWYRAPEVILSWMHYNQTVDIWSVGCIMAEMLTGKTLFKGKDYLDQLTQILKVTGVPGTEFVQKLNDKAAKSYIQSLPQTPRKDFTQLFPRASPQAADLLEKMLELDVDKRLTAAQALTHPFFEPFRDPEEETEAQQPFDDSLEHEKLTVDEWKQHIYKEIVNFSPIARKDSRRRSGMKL
Sequence of MAPK1 (human) (P28482 whole entry, looked up): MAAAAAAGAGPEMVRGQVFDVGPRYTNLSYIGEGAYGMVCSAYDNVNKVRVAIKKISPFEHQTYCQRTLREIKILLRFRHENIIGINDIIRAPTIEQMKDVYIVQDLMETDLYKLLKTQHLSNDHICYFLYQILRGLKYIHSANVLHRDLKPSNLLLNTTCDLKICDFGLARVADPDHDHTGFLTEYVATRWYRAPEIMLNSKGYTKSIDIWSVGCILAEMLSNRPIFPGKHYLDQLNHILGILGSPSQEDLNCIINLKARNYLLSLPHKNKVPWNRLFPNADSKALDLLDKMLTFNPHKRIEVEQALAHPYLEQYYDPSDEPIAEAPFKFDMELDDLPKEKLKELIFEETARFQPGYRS
Sequence of MYLK (human) (Q15746 whole entry, looked up): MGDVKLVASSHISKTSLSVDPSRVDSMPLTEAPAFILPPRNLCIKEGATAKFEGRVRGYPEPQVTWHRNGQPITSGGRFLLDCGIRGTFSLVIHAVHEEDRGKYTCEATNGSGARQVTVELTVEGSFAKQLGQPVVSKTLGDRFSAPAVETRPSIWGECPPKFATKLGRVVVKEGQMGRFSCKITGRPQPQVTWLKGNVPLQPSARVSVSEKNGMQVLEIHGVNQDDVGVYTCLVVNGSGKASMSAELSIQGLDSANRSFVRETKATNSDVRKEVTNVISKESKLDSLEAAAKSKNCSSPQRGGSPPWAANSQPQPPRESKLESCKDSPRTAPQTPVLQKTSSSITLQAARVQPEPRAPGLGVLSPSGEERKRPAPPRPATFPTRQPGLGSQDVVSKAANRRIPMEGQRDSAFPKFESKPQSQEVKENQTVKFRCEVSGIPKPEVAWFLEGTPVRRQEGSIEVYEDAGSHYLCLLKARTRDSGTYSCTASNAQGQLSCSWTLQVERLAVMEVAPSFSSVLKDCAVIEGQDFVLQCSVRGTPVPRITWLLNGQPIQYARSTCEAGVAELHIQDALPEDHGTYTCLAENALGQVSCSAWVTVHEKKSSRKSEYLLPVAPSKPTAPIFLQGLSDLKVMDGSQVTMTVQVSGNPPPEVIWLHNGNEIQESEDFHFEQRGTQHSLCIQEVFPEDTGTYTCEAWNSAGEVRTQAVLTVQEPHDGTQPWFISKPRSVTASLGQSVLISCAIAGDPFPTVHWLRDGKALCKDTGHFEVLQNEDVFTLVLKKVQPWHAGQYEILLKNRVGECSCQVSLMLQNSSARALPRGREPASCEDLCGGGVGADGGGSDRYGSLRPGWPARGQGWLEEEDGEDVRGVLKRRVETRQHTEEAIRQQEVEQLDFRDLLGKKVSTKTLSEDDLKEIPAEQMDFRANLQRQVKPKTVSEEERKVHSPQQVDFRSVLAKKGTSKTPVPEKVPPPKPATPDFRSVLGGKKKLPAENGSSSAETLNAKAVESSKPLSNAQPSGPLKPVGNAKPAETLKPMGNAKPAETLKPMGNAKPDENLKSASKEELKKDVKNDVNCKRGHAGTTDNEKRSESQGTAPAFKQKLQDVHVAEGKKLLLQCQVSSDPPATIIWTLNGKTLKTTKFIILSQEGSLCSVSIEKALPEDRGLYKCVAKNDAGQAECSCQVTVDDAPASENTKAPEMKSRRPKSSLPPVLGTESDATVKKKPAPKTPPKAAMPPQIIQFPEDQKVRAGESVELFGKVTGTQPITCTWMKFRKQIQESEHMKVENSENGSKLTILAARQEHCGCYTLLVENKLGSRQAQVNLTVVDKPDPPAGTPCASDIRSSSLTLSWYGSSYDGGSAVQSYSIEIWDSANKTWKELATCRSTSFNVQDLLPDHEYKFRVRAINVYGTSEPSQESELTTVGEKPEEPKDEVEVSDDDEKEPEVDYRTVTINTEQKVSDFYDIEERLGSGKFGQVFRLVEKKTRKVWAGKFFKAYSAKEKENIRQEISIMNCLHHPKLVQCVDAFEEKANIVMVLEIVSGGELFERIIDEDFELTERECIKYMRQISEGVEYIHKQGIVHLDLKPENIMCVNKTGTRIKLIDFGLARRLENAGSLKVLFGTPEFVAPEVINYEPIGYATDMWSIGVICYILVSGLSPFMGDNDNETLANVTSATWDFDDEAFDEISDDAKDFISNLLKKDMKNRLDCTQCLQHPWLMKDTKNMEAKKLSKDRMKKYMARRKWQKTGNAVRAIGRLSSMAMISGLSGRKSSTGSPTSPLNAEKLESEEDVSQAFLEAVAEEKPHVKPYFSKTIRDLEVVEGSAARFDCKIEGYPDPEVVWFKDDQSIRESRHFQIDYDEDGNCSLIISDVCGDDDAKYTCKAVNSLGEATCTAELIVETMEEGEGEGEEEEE
Sequence of MKNK1 (human) (Q9BUB5 whole entry, looked up): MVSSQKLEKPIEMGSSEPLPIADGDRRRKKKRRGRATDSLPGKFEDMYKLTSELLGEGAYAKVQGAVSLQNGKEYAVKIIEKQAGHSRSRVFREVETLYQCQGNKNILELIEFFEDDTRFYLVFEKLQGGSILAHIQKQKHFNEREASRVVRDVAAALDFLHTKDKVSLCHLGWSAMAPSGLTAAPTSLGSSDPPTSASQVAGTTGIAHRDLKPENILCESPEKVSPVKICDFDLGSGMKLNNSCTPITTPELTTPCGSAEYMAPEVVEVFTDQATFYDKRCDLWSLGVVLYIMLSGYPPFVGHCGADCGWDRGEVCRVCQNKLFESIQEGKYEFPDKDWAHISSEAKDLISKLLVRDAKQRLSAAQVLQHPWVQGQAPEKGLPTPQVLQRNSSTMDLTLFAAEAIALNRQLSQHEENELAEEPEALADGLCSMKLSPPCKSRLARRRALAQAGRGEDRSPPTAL
Sequence of MAPK14 (human) (Q16539 whole entry, looked up): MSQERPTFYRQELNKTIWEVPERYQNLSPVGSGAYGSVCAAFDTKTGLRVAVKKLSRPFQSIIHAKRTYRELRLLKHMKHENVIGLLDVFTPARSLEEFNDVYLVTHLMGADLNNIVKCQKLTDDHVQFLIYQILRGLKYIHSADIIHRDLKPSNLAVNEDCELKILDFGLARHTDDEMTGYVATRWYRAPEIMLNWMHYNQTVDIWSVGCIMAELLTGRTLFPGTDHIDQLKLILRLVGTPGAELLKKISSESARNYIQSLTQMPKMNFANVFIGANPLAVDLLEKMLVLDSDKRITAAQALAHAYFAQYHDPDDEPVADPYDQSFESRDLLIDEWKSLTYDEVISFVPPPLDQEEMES
Sequence of INSRR (human) (P14616 whole entry, looked up): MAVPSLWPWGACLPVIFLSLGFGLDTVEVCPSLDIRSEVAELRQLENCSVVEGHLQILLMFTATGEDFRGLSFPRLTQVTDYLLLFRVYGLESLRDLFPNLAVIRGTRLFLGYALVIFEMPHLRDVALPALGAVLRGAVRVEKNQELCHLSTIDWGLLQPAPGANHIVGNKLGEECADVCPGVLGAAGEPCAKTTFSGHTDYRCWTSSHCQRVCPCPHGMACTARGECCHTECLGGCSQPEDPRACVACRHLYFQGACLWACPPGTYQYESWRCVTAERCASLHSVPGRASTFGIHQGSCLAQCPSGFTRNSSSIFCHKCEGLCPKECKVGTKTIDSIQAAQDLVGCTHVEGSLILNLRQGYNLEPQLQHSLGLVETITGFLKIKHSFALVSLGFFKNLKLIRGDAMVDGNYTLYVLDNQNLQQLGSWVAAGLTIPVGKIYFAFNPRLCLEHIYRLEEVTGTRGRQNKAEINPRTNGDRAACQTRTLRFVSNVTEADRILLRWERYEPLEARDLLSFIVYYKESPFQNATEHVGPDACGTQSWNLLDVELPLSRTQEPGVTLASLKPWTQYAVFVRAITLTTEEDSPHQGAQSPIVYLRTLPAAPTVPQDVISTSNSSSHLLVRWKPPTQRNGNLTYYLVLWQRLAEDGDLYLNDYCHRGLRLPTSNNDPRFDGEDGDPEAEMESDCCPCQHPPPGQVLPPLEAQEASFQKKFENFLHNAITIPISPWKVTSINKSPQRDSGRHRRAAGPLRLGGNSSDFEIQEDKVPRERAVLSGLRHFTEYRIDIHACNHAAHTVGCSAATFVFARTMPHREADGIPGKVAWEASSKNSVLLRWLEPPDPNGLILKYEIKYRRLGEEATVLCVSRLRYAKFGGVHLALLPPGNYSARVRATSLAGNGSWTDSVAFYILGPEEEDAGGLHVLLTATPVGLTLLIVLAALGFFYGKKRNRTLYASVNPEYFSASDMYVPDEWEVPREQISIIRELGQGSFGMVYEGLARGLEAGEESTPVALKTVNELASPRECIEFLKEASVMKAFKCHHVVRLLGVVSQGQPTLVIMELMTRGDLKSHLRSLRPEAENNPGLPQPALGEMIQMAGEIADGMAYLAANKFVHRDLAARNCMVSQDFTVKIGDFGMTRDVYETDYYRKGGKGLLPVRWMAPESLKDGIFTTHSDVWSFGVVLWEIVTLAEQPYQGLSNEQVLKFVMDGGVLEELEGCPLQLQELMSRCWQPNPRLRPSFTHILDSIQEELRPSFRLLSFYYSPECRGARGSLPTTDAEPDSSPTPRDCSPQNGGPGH
Sequence of NEK6 (human) (Q9HC98 whole entry, looked up): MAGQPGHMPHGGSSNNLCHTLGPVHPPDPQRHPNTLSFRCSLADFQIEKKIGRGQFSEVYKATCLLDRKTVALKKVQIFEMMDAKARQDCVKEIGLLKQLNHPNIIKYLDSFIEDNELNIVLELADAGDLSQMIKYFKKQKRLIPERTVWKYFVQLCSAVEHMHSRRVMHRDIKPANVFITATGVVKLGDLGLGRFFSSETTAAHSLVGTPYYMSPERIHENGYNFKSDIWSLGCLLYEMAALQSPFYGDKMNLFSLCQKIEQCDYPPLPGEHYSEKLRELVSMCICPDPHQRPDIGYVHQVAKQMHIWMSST

residual activity (MARK1 (human); compound 1.0 µM): 68% | residual activity (MARK1 (human); compound 10.0 µM): 29% | residual activity (CHEK2 (human); compound 1.0 µM): 21% | residual activity (CHEK2 (human); compound 10.0 µM): 5% | residual activity (CSK (human); compound 1.0 µM): 91% | residual activity (CSK (human); compound 10.0 µM): 64% | residual activity (DYRK2 (human); compound 1.0 µM): 12% | residual activity (DYRK2 (human); compound 10.0 µM): 2% | residual activity (ERBB4 (human); compound 1.0 µM): 89% | residual activity (ERBB4 (human); compound 10.0 µM): 74% | residual activity (CaMK1 (human); compound 1.0 µM): 70% | residual activity (CaMK1 (human); compound 10.0 µM): 31% | residual activity (EEF2K (human); compound 1.0 µM): 94% | residual activity (EEF2K (human); compound 10.0 µM): 96% | residual activity (CSNK2A1 (human); compound 1.0 µM): 81% | residual activity (CSNK2A1 (human); compound 10.0 µM): 28% | residual activity (GCK (human); compound 1.0 µM): 13% | residual activity (GCK (human); compound 10.0 µM): 4% | residual activity (HIPK1 (human); compound 1.0 µM): 81% | residual activity (HIPK1 (human); compound 10.0 µM): 27% | residual activity (EPHB1 (human); compound 1.0 µM): 108% | residual activity (EPHB1 (human); compound 10.0 µM): 70% | residual activity (MELK (human); compound 1.0 µM): 77% | residual activity (MELK (human); compound 10.0 µM): 109% | residual activity (IGF1R (human); compound 1.0 µM): 55% | residual activity (IGF1R (human); compound 10.0 µM): 11% | residual activity (MAPK13 (human); compound 1.0 µM): 98% | residual activity (MAPK13 (human); compound 10.0 µM): 26% | residual activity (MAPK1 (human); compound 1.0 µM): 83% | residual activity (MAPK1 (human); compound 10.0 µM): 62% | residual activity ([1]; compound 1.0 µM): 104% | residual activity ([1]; compound 10.0 µM): 98% | residual activity (EPHB4 (human); compound 1.0 µM): 113% | residual activity (EPHB4 (human); compound 10.0 µM): 78% | residual activity (PIM2 (human); compound 1.0 µM): 78% | residual activity (PIM2 (human); compound 10.0 µM): 29% | residual activity (NEK6 (human); compound 1.0 µM): 95% | residual activity (NEK6 (human); compound 10.0 µM): 66% | residual activity (EPHB3 (human); compound 1.0 µM): 102% | residual activity (EPHB3 (human); compound 10.0 µM): 49% | residual activity (PIM3 (human); compound 1.0 µM): 33% | residual activity (PIM3 (human); compound 10.0 µM): 11% | residual activity (MAPK12 (human); compound 1.0 µM): 98% | residual activity (MAPK12 (human); compound 10.0 µM): 77% | residual activity (PIM1 (human); compound 1.0 µM): 43% | residual activity (PIM1 (human); compound 10.0 µM): 15% | residual activity (INSRR (human); compound 1.0 µM): 55% | residual activity (INSRR (human); compound 10.0 µM): 28% | residual activity (MAP3K7 TAB1 (human); compound 1.0 µM): 30% | residual activity (MAP3K7 TAB1 (human); compound 10.0 µM): 8% | residual activity (MYLK (human); compound 1.0 µM): 26% | residual activity (MYLK (human); compound 10.0 µM): 11% | residual activity (MKNK1 (human); compound 1.0 µM): 83% | residual activity (MKNK1 (human); compound 10.0 µM): 41% | residual activity (NUAK1 (human); compound 1.0 µM): 38% | residual activity (NUAK1 (human); compound 10.0 µM): 21% | residual activity (MARK3 (human); compound 1.0 µM): 41% | residual activity (MARK3 (human); compound 10.0 µM): 14% | residual activity (EPHA4 (human); compound 1.0 µM): 84% | residual activity (EPHA4 (human); compound 10.0 µM): 66% | residual activity (MAPKAPK2 (human); compound 1.0 µM): 95% | residual activity (MAPKAPK2 (human); compound 10.0 µM): 77% | residual activity (MAPK14 (human); compound 1.0 µM): 94% | residual activity (MAPK14 (human); compound 10.0 µM): 86% | residual activity (JAK2 JH1 JH2 (human); compound 1.0 µM): 26% | residual activity (JAK2 JH1 JH2 (human); compound 10.0 µM): 6% | residual activity (PRKCZ (human); compound 1.0 µM): 93% | residual activity (PRKCZ (human); compound 10.0 µM): 89%
Compound: O=C1c2ccccc2-c2n[nH]c3cccc1c23
residual activity (MAPK15 (human); compound 1.0 µM): 39% | residual activity (MAPK15 (human); compound 10.0 µM): 6%

residual activity (MARK1 (human); compound 10.0 µM): 82% | residual activity (CHEK2 (human); compound 10.0 µM): 57% | residual activity (CHEK2 (human); compound 100.0 µM): 10% | residual activity (CSK (human); compound 10.0 µM): 83% | residual activity (DYRK2 (human); compound 10.0 µM): 50% | residual activity (DYRK2 (human); compound 100.0 µM): 8% | residual activity (ERBB4 (human); compound 10.0 µM): 43% | residual activity (ERBB4 (human); compound 100.0 µM): 23% | residual activity (CaMK1 (human); compound 10.0 µM): 20% | residual activity (CaMK1 (human); compound 100.0 µM): 5% | residual activity (EEF2K (human); compound 10.0 µM): 77% | residual activity (CSNK2A1 (human); compound 10.0 µM): 63% | residual activity (GCK (human); compound 10.0 µM): 63% | residual activity (HIPK1 (human); compound 10.0 µM): 84% | residual activity (EPHB1 (human); compound 10.0 µM): 93% | residual activity (MELK (human); compound 10.0 µM): 73% | residual activity (IGF1R (human); compound 10.0 µM): 70% | residual activity (MAPK13 (human); compound 10.0 µM): 88% | residual activity (MAPK13 (human); compound 100.0 µM): 46% | residual activity (MAPK1 (human); compound 10.0 µM): 93% | residual activity (MAPK1 (human); compound 100.0 µM): 95% | residual activity ([1]; compound 10.0 µM): 3% | residual activity ([1]; compound 100.0 µM): 7% | residual activity (EPHB4 (human); compound 10.0 µM): 97% | residual activity (PIM2 (human); compound 10.0 µM): 63% | residual activity (NEK6 (human); compound 10.0 µM): 73% | residual activity (EPHB3 (human); compound 10.0 µM): 101% | residual activity (PIM3 (human); compound 10.0 µM): 17% | residual activity (PIM3 (human); compound 100.0 µM): 10% | residual activity (MAPK12 (human); compound 10.0 µM): 15% | residual activity (MAPK12 (human); compound 100.0 µM): 9% | residual activity (PIM1 (human); compound 10.0 µM): 22% | residual activity (PIM1 (human); compound 100.0 µM): 6% | residual activity (INSRR (human); compound 10.0 µM): 40% | residual activity (INSRR (human); compound 100.0 µM): 22% | residual activity (MAP3K7 TAB1 (human); compound 10.0 µM): 79% | residual activity (MYLK (human); compound 10.0 µM): 68% | residual activity (MKNK1 (human); compound 10.0 µM): 35% | residual activity (NUAK1 (human); compound 10.0 µM): 42% | residual activity (NUAK1 (human); compound 100.0 µM): 11% | residual activity (MARK3 (human); compound 10.0 µM): 84% | residual activity (EPHA4 (human); compound 10.0 µM): 106% | residual activity (MAPKAPK2 (human); compound 10.0 µM): 92% | residual activity (MAPKAPK2 (human); compound 100.0 µM): 5% | residual activity (MAPK14 (human); compound 10.0 µM): 91% | residual activity (MAPK14 (human); compound 100.0 µM): 78% | residual activity (JAK2 JH1 JH2 (human); compound 10.0 µM): 63% | residual activity (PRKCZ (human); compound 10.0 µM): 95%
Compound: Cc1nc(N)sc1-c1csc(Nc2cccnc2)n1
residual activity (MAPK15 (human); compound 10.0 µM): 43%
